Twelve compounds from patent US9073855B2, “BCL-2 selective apoptosis-inducing agents for the treatment of cancer and immune diseases” (AbbVie Inc., priority 2008, dated 2015) can be followed below.

For one assay, the target named is GST-Bcl-2 (Homo sapiens, UniProt P10415). As to the kind of experiment: TR-FRET binding assay, GST-Bcl-2 with F-Bak peptide probe. Conditions: for Ki: TR-FRET Binding Affinity; for Binding selectivity ratio (Bcl-XL Ki/Bcl-2 Ki): TR-FRET, Bcl-XL Ki divided by Bcl-2 Ki. A digest of the protocol: (§1)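 Displacement of a fluorescein-labelled Bak peptide from the GST-tagged protein was followed by time-resolved FRET with a terbium anti-GST donor after 3 h incubation at room temperature. Inhibition constants were calculated with Wang's equation.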
Chain of GST-Bcl-2 (P10415 whole entry): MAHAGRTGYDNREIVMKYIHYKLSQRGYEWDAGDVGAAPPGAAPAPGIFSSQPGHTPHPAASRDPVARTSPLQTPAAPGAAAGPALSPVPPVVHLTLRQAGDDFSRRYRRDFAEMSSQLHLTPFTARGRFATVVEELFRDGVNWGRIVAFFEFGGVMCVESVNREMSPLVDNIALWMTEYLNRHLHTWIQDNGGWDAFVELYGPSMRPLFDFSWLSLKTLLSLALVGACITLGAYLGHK
Background: TR-FRET usually uses a lanthanide donor and a delayed reading to cut background.

For the next assay, the target named is GST-Bcl-XL (Homo sapiens, UniProt Q07817). As to the kind of experiment: TR-FRET binding assay, GST-Bcl-XL with F-Bak peptide probe. The settings on record: TR-FRET Binding Affinity. A digest of the protocol:
as §1

A value given as a limit tells only on which side of the number the result lay.

Chain of GST-Bcl-XL (Q07817 whole entry): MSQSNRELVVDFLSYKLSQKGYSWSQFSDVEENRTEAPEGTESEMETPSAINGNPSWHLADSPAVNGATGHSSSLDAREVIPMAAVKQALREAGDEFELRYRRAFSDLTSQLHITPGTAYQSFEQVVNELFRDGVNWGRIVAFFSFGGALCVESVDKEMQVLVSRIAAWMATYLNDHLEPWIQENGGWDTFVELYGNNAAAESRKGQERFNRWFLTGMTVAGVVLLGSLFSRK

As for `CC1(C)CCC(CN2CCN(c3ccc(C(=O)NS(=O)(=O)c4cnc(OCC5CCOCC5)c(F)c4)c(Oc4cccc5[nH]ncc45)c3)CC2)=C(c2ccc(Cl)cc2)C1` [Example 487, 4-(4-{[2-(4-chlorophenyl)-4,4-dimethylcyclohex-1-en-1-yl]methyl}piperazin-1-yl)-N-{[5-fluoro-6-(tetrahydro-2H-pyran-4-ylmethoxy)pyridin-3-yl]sulfonyl}-2-(1H-indazol-4-yloxy)benzamide], on GST-Bcl-2, the affinity corresponds to a Ki of 0.033 nM and the “Binding selectivity ratio (Bcl-XL Ki/Bcl-2 Ki)” value (“Binding selectivity ratio” below) stood at 2287.2. For the same compound, the Ki (in general, the equilibrium dissociation constant of an inhibitor or competing ligand from its target) at GST-Bcl-XL is 75.4 nM.

Consider `CC1(C)CCC(CN2CCN(c3ccc(C(=O)NS(=O)(=O)c4cnc(OCC5COCCO5)c(Cl)c4)c(Oc4cccc5[nH]ncc45)c3)CC2)=C(c2ccc(Cl)cc2)C1` (stereo not drawn) [Example 488, N-{[5-chloro-6-(1,4-dioxan-2-ylmethoxy)pyridin-3-yl]sulfonyl}-4-(4-{[2-(4-chlorophenyl)-4,4-dimethylcyclohex-1-en-1-yl]methyl}piperazin-1-yl)-2-(1H-indazol-4-yloxy)benzamide], for which, at GST-Bcl-2, the Ki was below 0.01 nM and the “Binding selectivity ratio” value is above 2345.9. Besides, at GST-Bcl-XL, affinity was put at a Ki of 23.5 nM.

On to `CC1(C)CCC(CN2CCN(c3ccc(C(=O)NS(=O)(=O)c4cnc(OCC5(O)CCC(F)(F)CC5)c(Cl)c4)c(Oc4cccc5[nH]ncc45)c3)CC2)=C(c2ccc(Cl)cc2)C1` [Example 490, N-({5-chloro-6-[(4,4-difluoro-1-hydroxycyclohexyl)methoxy]pyridin-3-yl}sulfonyl)-4-(4-{[2-(4-chlorophenyl)-4,4-dimethylcyclohex-1-en-1-yl]methyl}piperazin-1-yl)-2-(1H-indazol-4-yloxy)benzamide], for which, on GST-Bcl-2, the Ki was determined as 1.14 nM and the “Binding selectivity ratio” value came out at 92.7. At GST-Bcl-XL, this compound displayed a Ki of 106 nM.

Regarding `CC1(C)CCC(CN2CCN(c3ccc(C(=O)NS(=O)(=O)c4cnc(OCC5CC5(F)F)c(Cl)c4)c(Oc4cccc5[nH]ncc45)c3)CC2)=C(c2ccc(Cl)cc2)C1` (stereo not drawn) [Example 491, N-({5-chloro-6-[(2,2-difluorocyclopropyl)methoxy]pyridin-3-yl}sulfonyl)-4-(4-{[2-(4-chlorophenyl)-4,4-dimethylcyclohex-1-en-1-yl]methyl}piperazin-1-yl)-2-(1H-indazol-4-yloxy)benzamide], the inhibitory constant (Ki) on GST-Bcl-2 amounted to 0.017 nM; on GST-Bcl-XL it was 77.2 nM. On GST-Bcl-2, the “Binding selectivity ratio” value is 4600.5.

Regarding `CC1(C)CCC(CN2CCN(c3ccc(C(=O)NS(=O)(=O)c4cnc(OC[C@H]5CC[C@H](C#N)CC5)c(Cl)c4)c(Oc4cccc5[nH]ncc45)c3)CC2)=C(c2ccc(Cl)cc2)C1` [Example 492, N-({5-chloro-6-[(trans-4-cyanocyclohexyl)methoxy]pyridin-3-yl}sulfonyl)-4-(4-{[2-(4-chlorophenyl)-4,4-dimethylcyclohex-1-en-1-yl]methyl}piperazin-1-yl)-2-(1H-indazol-4-yloxy)benzamide], on GST-Bcl-2, the inhibitory constant (Ki) is below 0.01 nM and the “Binding selectivity ratio” value is recorded as above 4509.6. This compound came in with a Ki on GST-Bcl-XL of 45.1 nM.

`CC1(C)CCC(CN2CCN(c3ccc(C(=O)NS(=O)(=O)c4cnc(OCC5CCC(C)(O)CC5)c(Cl)c4)c(Oc4cccc5[nH]ncc45)c3)CC2)=C(c2ccc(Cl)cc2)C1` (stereo not drawn) [Example 493, N-({5-chloro-6-[(cis-4-hydroxy-4-methylcyclohexyl)methoxy]pyridin-3-yl}sulfonyl)-4-(4-{[2-(4-chlorophenyl)-4,4-dimethylcyclohex-1-en-1-yl]methyl}piperazin-1-yl)-2-(1H-indazol-4-yloxy)benzamide]: at GST-Bcl-2, the inhibitory constant (Ki) was below 0.01 nM and the “Binding selectivity ratio” value is on record as above 4188.3. The Ki at GST-Bcl-XL was 41.9 nM.

For the compound `CC1(C)CCC(CN2CCN(c3ccc(C(=O)NS(=O)(=O)c4cnc(OCC5CCC(C)(O)CC5)c(Cl)c4)c(Oc4cccc5[nH]ncc45)c3)CC2)=C(c2ccc(Cl)cc2)C1` (stereo not drawn) [Example 494, N-({5-chloro-6-[(trans-4-hydroxy-4-methylcyclohexyl)methoxy]pyridin-3-yl}sulfonyl)-4-(4-{[2-(4-chlorophenyl)-4,4-dimethylcyclohex-1-en-1-yl]methyl}piperazin-1-yl)-2-(1H-indazol-4-yloxy)benzamide], at GST-Bcl-2, the Ki was below 0.01 nM and the “Binding selectivity ratio” value is given as above 1556.6. The compound also returned a Ki on GST-Bcl-XL of 15.6 nM.

With `CC1(C)CC(c2ccc(Cl)cc2)=C(CN2CCN(c3ccc(C(=O)NS(=O)(=O)c4ccc(OCC5(F)CCOCC5)c(Cl)c4)c(Oc4cccc5[nH]ncc45)c3)CC2)CO1` [Example 496, N-({3-chloro-4-[(4-fluorotetrahydro-2H-pyran-4-yl)methoxy]phenyl}sulfonyl)-4-(4-{[4-(4-chlorophenyl)-6,6-dimethyl-5,6-dihydro-2H-pyran-3-yl]methyl}piperazin-1-yl)-2-(1H-indazol-4-yloxy)benzamide], at GST-Bcl-2, the Ki was found to be 0.078 nM and the “Binding selectivity ratio” value was found to be 558.9. The compound further returned a Ki at GST-Bcl-XL of 43.3 nM.

Consider `CC1(C)CCC(CN2CCN(c3ccc(C(=O)NS(=O)(=O)c4ccc(OCC5(F)CCOCC5)c(C(F)(F)F)c4)c(Oc4cccc5[nH]ncc45)c3)CC2)=C(c2ccc(Cl)cc2)C1` [Example 497, 4-(4-{[2-(4-chlorophenyl)-4,4-dimethylcyclohex-1-en-1-yl]methyl}piperazin-1-yl)-N-({4-[(4-fluorotetrahydro-2H-pyran-4-yl)methoxy]-3-(trifluoromethyl)phenyl}sulfonyl)-2-(1H-indazol-4-yloxy)benzamide], for which, on GST-Bcl-2, the affinity corresponds to a Ki of 0.082 nM and the “Binding selectivity ratio” value is reported as 1517.4. This compound also came in with an inhibitory constant (Ki) at GST-Bcl-XL of 124 nM.

Take `CC1(C)CCC(CN2CCN(c3ccc(C(=O)NS(=O)(=O)c4ccc(OCC5CCOCC5)c(Cl)c4)c(Oc4cccc5[nH]ncc45)c3)CC2)=C(c2ccc(Cl)cc2)C1` [Example 498, 4-(4-{[2-(4-chlorophenyl)-4,4-dimethylcyclohex-1-en-1-yl]methyl}piperazin-1-yl)-N-{[3-chloro-4-(tetrahydro-2H-pyran-4-ylmethoxy)phenyl]sulfonyl}-2-(1H-indazol-4-yloxy)benzamide]: on GST-Bcl-2, the Ki is below 0.01 nM and the “Binding selectivity ratio” value is on record as above 12491.0. Further, the inhibition constant Ki at GST-Bcl-XL was 125 nM.

With `CC1(C)CCC(CN2CCN(c3ccc(C(=O)NS(=O)(=O)c4ccc(OCC5(F)CCOCC5)c(Cl)c4)c(Oc4cccc5[nH]cnc45)c3)CC2)=C(c2ccc(Cl)cc2)C1` [Example 499, 2-(1H-benzimidazol-4-yloxy)-N-({3-chloro-4-[(4-fluorotetrahydro-2H-pyran-4-yl)methoxy]phenyl}sulfonyl)-4-(4-{[2-(4-chlorophenyl)-4,4-dimethylcyclohex-1-en-1-yl]methyl}piperazin-1-yl)benzamide], on GST-Bcl-2, the Ki was below 0.01 nM and the “Binding selectivity ratio” value is recorded as above 10415.0. Moreover, the inhibition constant (Ki) at GST-Bcl-XL came to 104 nM.

For the compound `CC1(C)CCC(CN2CCN(c3ccc(C(=O)NS(=O)(=O)c4cnc(OCC5CCOCC5)c(Cl)c4)c(Oc4cccc5[nH]cnc45)c3)CC2)=C(c2ccc(Cl)cc2)C1` [Example 500, 2-(1H-benzimidazol-4-yloxy)-4-(4-{[2-(4-chlorophenyl)-4,4-dimethylcyclohex-1-en-1-yl]methyl}piperazin-1-yl)-N-{[5-chloro-6-(tetrahydro-2H-pyran-4-ylmethoxy)pyridin-3-yl]sulfonyl}benzamide], on GST-Bcl-2, the Ki was below 0.01 nM and the “Binding selectivity ratio” value is on record as above 14734.0. The inhibition constant (Ki) at GST-Bcl-XL was found to be 147 nM.
